In publication PMC3637938 (Chemical research in toxicology, 2013):

What was measured:
FLAG-Trx2 = biological target: T1, FLAG-Trx2 (Saccharomyces cerevisiae, UniProt P22803); assay: cross-linking in yeast cells, anti-FLAG immunoblot; type: cell-based; conditions: covalent; 1 h
T1 sequence (P22803 2-104): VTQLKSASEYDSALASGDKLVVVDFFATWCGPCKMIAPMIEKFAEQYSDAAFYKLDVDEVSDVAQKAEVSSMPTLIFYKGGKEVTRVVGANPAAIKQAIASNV

FLAG-Tsa1 = biological target: T2, FLAG-Tsa1 (Saccharomyces cerevisiae, UniProt P34760); assay: cross-linking in yeast cells, anti-FLAG immunoblot; type: cell-based; conditions: covalent; 1 h
T2 sequence (P34760 2-196): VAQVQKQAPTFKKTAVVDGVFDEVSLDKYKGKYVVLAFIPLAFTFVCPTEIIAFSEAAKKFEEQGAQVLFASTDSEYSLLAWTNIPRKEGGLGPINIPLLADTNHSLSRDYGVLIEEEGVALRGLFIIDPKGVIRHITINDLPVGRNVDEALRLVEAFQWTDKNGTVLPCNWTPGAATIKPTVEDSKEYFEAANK

Row | Structure (SMILES) | cross-linking in yeast cells, anti-FLAG immunoblot (FLAG-Trx2) | cross-linking in yeast cells, anti-FLAG immunoblot (FLAG-Tsa1)
1 | C1OC1C1CO1 (stereo not shown) [1,2,3,4-diepoxybutane] | each of these bifunctional electrophiles promotes cross-linking of Trx2 and Tsa1 in yeast | each of these bifunctional electrophiles promotes cross-linking of Trx2 and Tsa1 in yeast
2 | CCOC(=O)C#CC(=O)OCC [diethyl acetylenedicarboxylate] | each of these bifunctional electrophiles promotes cross-linking of Trx2 and Tsa1 in yeast | each of these bifunctional electrophiles promotes cross-linking of Trx2 and Tsa1 in yeast
